Test results from patent US20100068150A1, “Selective Caspase Inhibitors” (The Board of Trustees of the Leland Stanford Junior …, priority 2006, published 2010).

Experiments:
[1] = target: T1, caspase-9 in 293 extracts (Homo sapiens, UniProt P55211); assay: Intrinsic apoptosis assay in 293 extracts, KMB01 labeling of caspase-9; type: biochemical
T1 construct: endogenous in cells
Description: To further confirm our assignment of the labeled species we treated samples at various activation times with purified recombinant Bir3 domain of XIAP. This polypeptide specifically binds to and inhibits caspase-9 but not caspase-3 or 7. […] We cannot rule out the possibility that p33 caspase-9 is the result of cleavage by some other protease or itself after it has already been labeled by KMB01 or inhibited by Bir3.
Profiling of caspase activity in 293 extracts that had been treated with AB06 at the same time as cytochrome c/dATP confirmed the selectivity of our inhibitor. […]
To confirm that our inhibitor AB06 was not reducing caspase 9 activity resulting in slow processing of caspase-7 and accumulation of a partially processed intermediate we treated extracts with a range of AB06 concentrations and monitored caspase-9 inhibition at various time points after cytochrome c/dATP addition. […]
Hypotonic 293 or MCF-7 extracts (4.7 μg/μl total protein concentration; 73 μg of total protein per time point) were activated by addition of cytochrome c (100 uM final) and dATP (1 mM final) for a range of times from 0-240 minutes as indicated. […] A portion (13.5 μg total protein) from each time point was analyzed by SDS-PAGE using 10-20% gradient gels followed by blotting for biotin as described above. […]

[2] = tested on: endogenous caspases in 293 cytosolic extracts; assay: Direct labeling of endogenous caspases in apoptotic 293 cytosolic extracts; type: binding; details: 10 min after cytochrome c/dATP; bAB06 and bAB13 at 10 nM to 10 μM
Protocol: (a.) Hypotonic 293 cytosolic extracts were induced to undergo intrinsic apoptosis by addition of cytochrome c/dATP. KMB01, bAB06 and bAB13 were added 10 minutes after activation and labeling of caspase active sites was carried out for three minutes. Samples were analyzed by SDS-PAGE followed by biotin blotting using streptavidin-HRP. (b) The identity of individual caspases was confirmed via immunoprecipitation using specific anti-sera for caspases-3, 7 and 9 (also see FIG. 5B for immunoprecipitation of caspases-3 and 7 after KMB01 labeling). Extracts (293) were activated with cytochrome c/dATP for 10 minutes, labeled by addition of indicated probes (100 nM final concentration for bAB06 and bAB13 and 10 μM final concentration for KMB01) and labeled caspases precipitated using specific anti-sera as described in the Methods section. […] Labeling of caspases was monitored by SDS-PAGE followed by biotin blotting with streptavidin-HRP. […]
Selective labeling of endogenous caspases in cell extracts and live cells with active site probes was carried out as follows: Hypotonic 293 cytosolic extracts were induced to undergo intrinsic apoptosis by addition of cytochrome c/dATP. […] Samples were analyzed by SDS-PAGE followed by biotin blotting using streptavidin-HRP. […] Labeling of caspases was monitored by SDS-PAGE followed by biotin blotting with streptavidin-HRP. […]

T1 sequence (P55211 1-315 limits assumed): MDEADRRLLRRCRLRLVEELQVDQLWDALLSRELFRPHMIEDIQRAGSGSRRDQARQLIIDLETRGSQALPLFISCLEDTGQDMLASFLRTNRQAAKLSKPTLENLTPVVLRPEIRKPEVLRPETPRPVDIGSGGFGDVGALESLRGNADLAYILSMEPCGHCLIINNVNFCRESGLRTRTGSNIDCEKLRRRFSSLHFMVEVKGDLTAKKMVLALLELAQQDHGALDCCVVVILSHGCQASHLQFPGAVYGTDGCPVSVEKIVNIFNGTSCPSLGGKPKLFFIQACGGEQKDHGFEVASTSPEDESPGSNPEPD
T1 sequence (P55211 331-416 limits assumed): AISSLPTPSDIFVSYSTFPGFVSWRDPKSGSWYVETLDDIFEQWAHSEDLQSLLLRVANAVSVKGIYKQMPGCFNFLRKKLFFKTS
T1 sequence (O14727 whole entry partner): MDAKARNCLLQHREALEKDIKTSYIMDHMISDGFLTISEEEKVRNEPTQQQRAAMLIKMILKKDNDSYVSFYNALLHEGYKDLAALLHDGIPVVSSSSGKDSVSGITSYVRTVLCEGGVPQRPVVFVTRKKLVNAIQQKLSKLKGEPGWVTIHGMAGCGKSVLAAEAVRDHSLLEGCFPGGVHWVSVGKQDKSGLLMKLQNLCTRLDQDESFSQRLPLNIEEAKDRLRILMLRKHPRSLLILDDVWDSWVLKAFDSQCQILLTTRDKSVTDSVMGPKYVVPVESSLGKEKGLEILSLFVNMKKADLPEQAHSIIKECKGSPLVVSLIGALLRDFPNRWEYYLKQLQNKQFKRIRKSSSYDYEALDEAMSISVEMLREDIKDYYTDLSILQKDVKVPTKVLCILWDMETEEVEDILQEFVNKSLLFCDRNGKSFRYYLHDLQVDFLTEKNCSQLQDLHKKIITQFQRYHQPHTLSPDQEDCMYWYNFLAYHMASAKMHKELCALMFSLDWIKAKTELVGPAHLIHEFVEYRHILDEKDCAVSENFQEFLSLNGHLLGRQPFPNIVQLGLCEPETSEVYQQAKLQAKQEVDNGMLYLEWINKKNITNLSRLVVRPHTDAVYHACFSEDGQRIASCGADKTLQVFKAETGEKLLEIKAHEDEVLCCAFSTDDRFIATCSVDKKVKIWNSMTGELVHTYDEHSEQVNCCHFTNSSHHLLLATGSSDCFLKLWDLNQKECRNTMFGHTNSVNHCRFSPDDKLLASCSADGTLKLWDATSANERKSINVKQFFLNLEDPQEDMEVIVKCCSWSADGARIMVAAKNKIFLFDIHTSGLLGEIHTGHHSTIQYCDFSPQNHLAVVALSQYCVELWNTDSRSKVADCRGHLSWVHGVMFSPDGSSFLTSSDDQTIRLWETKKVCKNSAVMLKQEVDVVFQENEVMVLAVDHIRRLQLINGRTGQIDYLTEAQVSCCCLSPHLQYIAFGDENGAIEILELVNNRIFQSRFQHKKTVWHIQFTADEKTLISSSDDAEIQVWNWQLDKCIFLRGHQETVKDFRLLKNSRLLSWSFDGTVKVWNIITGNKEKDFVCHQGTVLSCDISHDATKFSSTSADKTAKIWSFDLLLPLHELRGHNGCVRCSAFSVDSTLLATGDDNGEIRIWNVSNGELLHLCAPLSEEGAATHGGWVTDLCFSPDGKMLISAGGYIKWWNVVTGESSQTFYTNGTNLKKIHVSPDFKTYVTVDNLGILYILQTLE
T1 sequence (P99999 2-105 partner limits assumed): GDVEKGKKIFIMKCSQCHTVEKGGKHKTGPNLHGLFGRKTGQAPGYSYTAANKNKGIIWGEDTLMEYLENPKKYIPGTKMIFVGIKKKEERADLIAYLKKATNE

Cc1cccc(C)c1C(=O)OCC(=O)[C@H](CC(=O)O)NC(=O)[C@@H](NC(=O)[C@H](Cc1ccncc1)NC(=O)[C@H](CC(=O)O)NC(=O)Cc1ccc(O)c([N+](=O)[O-])c1)C(C)C [AB06, Np-D-3-V-D-DMBA]
KMB01 labeling of processed forms of caspase-9 and precursor forms of caspase-7 ([1]; AB06 added at the same time as cytochrome c/dATP): unaltered
cross reactivity with caspase-9 ([1]; range of AB06 concentrations, as high as 10 μM for up to 30 minutes): lack of cross reactivity

Bio-EVD-AOMK [KMB01, reference compound]
labeling of endogenous caspases in activated 293 extracts [2]: labeled a 35 kDa caspase-9 species and the two primary mature forms of caspase3 at 17 and 20 kDa as well the 33 kDa full length N-peptide processed and 20 kDa mature forms of caspase-7
